pIC50: −log10 of the molar value.
Columns and labels:
alphaVbeta5 = alphaVbeta5 (Homo sapiens, UniProt P06756+P18084); experiment: alphaVbeta5 binding affinities (supplementary CSV only); settings: unit inferred
Text: Supplement jm1c00533_si_002.csv, table | column: alphaVbeta5 Binding affinities (IC50)

nectin1 = experiment: Integrin internalization assay, surface nectin1 control by flow cytometry; format: cell-based; settings: J cells with nectin1, αvβ6 and αvβ8, 700 μM, 1 h at 37 °C
Description: Figure 5 Integrin internalization assay. J cells were transfected with a low amount (75 ng of DNA/24 well) of nectin1 plus αvβ6 integrin (300 ng of DNA/24 well) and αvβ8 integrin (300 ng of DNA/24 well). Then, 48 h after transfection, the cells were exposed to 700 μM peptides for 1 h at 37 °C. Cells derived from samples treated or not treated with peptides were incubated for 1 h at 4 °C with FAB4155A (mAbβ6), FAB4775A (mAbβ8), and R1.302 (mAbnectin1) mAbs. Samples incubated with R1.302 were washed and subsequently incubated for 1 h at 4 °C with the allophycocyanin (APC) mouse secondary antibody. Integrin and nectin1 surface expression levels were quantified as flow cytometry expression of the APC mean fluorescence intensity (MFI) of gated cells. Histograms represent the average of triplicates ± SD.
J cells were transfected with low amounts of plasmids encoding nectin1 (75 ng of DNA/24 well), plus plasmids encoding αv + β6 and αv + β8 integrins (300 ng of DNA/24 well) by means of Lipofect 2000 (Life Technologies). Then, 48 h after transfection, the cells were incubated with a single concentration of peptides (700 μM) for 1 h at 37 °C. At the end of the treatment with the peptides, half of the sample was used to visualize the expression of integrins β6 and β8 or of nectin1 used as a control in a flow cytometry assay. […]

[1] = tested on: recombinant K26GFP HSV-1 strain; experiment: Infection neutralization assay, transfected J cells, K26GFP HSV-1, EGFP expression; format: cell-based; settings: for effect on HSV-1 infection (in words): J cells expressing nectin1 alone; for effect on virus entry (in words): J cells expressing nectin1 plus αvβ6 alone
Text: To this aim, we selected the J cells, which are negative for gD receptors and therefore cannot be infected by HSV-1 unless gD cognate receptors (i.e., nectin1) are transgenically expressed. […] In particular, J cells were transfected with low amounts of nectin1 plasmid, plus either αvβ6 or αvβ8 integrin plasmid or both, and then infected with the recombinant K26GFP HSV-1 strain. Indeed, the capsid protein ICP26 of this strain is fused to the green fluorescent protein (GFP),[60] whose cellular expression can be used to measure the viral infection. Thus, the K26GFP entry in J cells after compound treatment was evaluated using fluorescent microscopy (Figure 4A–T), and the enhanced green fluorescent protein (EGFP) expression was quantified using flow cytometry as the mean fluorescence intensity (MFI) of gated cells (Figure 4U). […] In parallel, we also evaluated the HSV infection in J cells expressing nectin1 plus either αvβ6 or αvβ8 alone.
J cells were transfected with a low amount (75 ng of DNA/24 well) of nectin1 alone (A–E), or with the same amount of nectin1 plus αvβ6 integrin (300 ng DNA/24 well) (F–J), or plus αvβ8 integrin (300 ng DNA/24 well) (K–O), or plus both the integrin receptors (P–T). […] The cells were infected with K26GFP. The nonpenetrated virus was inactivated by an acid wash. Infectivity was measured at 16 h after infection as EGFP expression. (A)–(T) panels show the EGFP expression in each sample for a typical experiment. (U) K26GFP infection was quantified as EGFP protein expression in the flow cytometry assay as the mean fluorescence intensity (MFI) of gated cells. Histograms represent the average of triplicates ± SD.
In other experiments, J cells were transfected with low amounts of plasmids encoding nectin1 (75 ng of DNA/24 well), plus or minus plasmids encoding αv + β6 or αv + β8 integrins (300 ng of DNA/24 well) or together by means of Lipofect 2000 (Life Technologies). The total amount of transfected plasmid DNA was made equal (675 ng/24 well) by the addition of Erb-2 plasmid DNA. […] Following infection, the unpenetrated virus was inactivated by means of an acid wash (40 mM citric acid, 10 mM KCl, 135 mM NaCl, pH 3),[87] and the cells were incubated for a further 16 h in the absence of the peptides or antibody. The extent of infection was assessed through EGFP expression.
Cytofluorimetric analyses were performed using an AccuriC6 flow cytometer (Becton Dickinson). A least 10 000 events were acquired for each sample. Microphotography of the inhibition experiment was conducted using a Nikon Eclipse Ni microscope.

[2] = tested on: recombinant R8102 HSV-1 strain; experiment: Infection neutralization assay, 293T cells, R8102 HSV-1, β-galactosidase readout; format: cell-based; settings: for effect on HSV-1 infection (in words): increasing concentrations, 1 h prior to infection and 90 min during attachment
Text: The binding of HSV-1 gH/gL to either αvβ6 or αvβ8 results in the dissociation of gL from the heterodimer, which, in turn, can favor HSV entry into cells.[27] […] R1.302, a nectin1-neutralizing mAb, was used as a positive control. In the first set of experiments, 293T cells, expressing both the αvβ6 and αvβ8 integrins, were alternatively exposed to increasing concentrations of the integrin-binding peptides and R1.302 before and during the infection by the recombinant R8102 HSV-1 strain. This virion carries, indeed, a lacZ reporter gene under the control of the α27 promoter, whose expression analysis allows for readily quantifying the infectivity.[59] […] Remarkably, these preliminary results were in agreement with the known interchangeable and additive roles played by αvβ6 and αvβ8 integrins upon HSV-1 infection.[26]
Figure 3 Inhibition of HSV-1 infection. 293T cells were exposed to increasing concentrations of the indicated peptides for 1 h prior to infection and during virus attachment for another 90 min. Infection was induced using the recombinant R8102 HSV-1 strain and measured after 8 h as β-galactosidase activity, using o-nitrophenyl-D-galactopyranoside (ONPG) as a substrate. The assays were run in triplicate. Bars show standard deviation (SD).
The experiments were performed using 293T cells in 96-well plates with extracellular virions of R8102 at an input multiplicity of infection of 5 PFU/cell. Cells were exposed to increasing concentrations of the peptides for 1 h at 37 °C, and the viral inoculum was added in the presence of peptides for 90 min at 37 °C. After the removal of the inoculum and rinsing with DMEM containing 1% FBS, the cells were incubated without peptides for 8 h. The same protocol was followed for R1.302 mAb that was used as a positive control. The infection was quantified as β-Gal activity using o-nitrophenyl-D-galactopyranoside (ONPG) as a substrate.[86]

[3] = J cells expressing nectin1 plus both αvβ6 and αvβ8, 700 μM
[4] = J cells expressing nectin1 plus αvβ8 alone, 700 μM

alphaVbeta5, sequence (P06756 31-1048): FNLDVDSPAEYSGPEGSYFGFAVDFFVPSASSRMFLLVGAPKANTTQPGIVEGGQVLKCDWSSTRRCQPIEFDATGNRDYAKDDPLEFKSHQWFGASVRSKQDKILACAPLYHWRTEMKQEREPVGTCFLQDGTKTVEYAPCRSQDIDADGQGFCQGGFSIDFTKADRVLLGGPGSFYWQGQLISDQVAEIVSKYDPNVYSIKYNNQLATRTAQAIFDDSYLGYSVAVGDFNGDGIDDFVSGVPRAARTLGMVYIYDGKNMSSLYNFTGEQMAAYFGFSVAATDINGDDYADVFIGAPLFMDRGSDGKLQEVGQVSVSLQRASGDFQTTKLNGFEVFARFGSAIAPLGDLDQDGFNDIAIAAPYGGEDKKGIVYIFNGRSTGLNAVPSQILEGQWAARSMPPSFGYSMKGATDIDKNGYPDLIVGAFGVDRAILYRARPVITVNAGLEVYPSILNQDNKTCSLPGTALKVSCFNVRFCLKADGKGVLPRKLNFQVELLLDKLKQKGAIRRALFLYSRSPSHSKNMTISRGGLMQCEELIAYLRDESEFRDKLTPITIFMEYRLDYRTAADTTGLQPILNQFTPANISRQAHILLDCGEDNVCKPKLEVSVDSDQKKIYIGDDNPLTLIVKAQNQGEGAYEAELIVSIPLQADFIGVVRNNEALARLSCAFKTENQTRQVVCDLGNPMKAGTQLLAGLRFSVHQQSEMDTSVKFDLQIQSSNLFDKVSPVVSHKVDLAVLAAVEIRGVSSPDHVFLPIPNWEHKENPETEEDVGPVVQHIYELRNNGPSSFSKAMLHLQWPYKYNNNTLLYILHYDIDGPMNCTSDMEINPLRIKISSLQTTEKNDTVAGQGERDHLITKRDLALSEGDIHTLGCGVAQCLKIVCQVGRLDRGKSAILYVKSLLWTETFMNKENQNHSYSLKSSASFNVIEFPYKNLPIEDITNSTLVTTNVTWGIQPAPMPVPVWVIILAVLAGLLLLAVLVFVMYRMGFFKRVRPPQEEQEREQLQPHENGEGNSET
alphaVbeta5, sequence (P18084 24-799): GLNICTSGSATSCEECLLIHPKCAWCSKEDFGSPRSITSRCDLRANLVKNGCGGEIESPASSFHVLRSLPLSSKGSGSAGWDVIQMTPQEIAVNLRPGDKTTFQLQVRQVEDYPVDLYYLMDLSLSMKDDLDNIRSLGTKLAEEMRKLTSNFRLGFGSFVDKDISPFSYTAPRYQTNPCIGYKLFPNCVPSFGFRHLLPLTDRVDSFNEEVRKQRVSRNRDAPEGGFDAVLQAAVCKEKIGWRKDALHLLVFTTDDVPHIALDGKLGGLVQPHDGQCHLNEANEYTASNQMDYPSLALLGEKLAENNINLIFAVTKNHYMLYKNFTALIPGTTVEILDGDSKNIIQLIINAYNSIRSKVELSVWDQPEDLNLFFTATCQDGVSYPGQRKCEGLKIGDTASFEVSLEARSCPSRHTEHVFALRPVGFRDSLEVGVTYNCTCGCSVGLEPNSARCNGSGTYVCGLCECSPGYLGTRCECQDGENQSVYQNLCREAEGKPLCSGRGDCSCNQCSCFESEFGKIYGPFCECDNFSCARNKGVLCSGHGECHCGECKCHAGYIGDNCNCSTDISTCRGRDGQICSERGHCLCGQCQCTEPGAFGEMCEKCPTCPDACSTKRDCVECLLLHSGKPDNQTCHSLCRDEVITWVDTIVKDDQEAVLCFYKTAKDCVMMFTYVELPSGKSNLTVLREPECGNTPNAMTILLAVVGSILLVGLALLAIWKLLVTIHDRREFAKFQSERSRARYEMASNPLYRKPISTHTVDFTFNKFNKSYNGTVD

| SMILES | pIC50 (alphaVbeta5) | surface expression of nectin1 (in words) (nectin1) | effect on HSV-1 infection (in words) ([1]; 700 μM) | effect on HSV infection (in words) [1, 3] | effect on virus entry (in words) ([1]; 700 μM) | effect on HSV infection (in words) [1, 4] | inhibition of HSV infection ([2]; 700 μM) [%] | maximum inhibition of HSV-1 infection ([2]; at 1000 μM) [%] | effect on HSV-1 infection (in words) [2] |
| --- | --- | --- | --- | --- | --- | --- | --- | --- | --- |
| N=C(N)NCCC[C@@H]1NC(=O)CC[C@@H](C(N)=O)NC(=O)[C@H](C2CCCCC2)NC(=O)[C@H](CC(=O)O)NC(=O)CNC1=O [compound 1, [Arg-Gly-Asp-Chg-Glu]-CONH2] | < 5.30 | not altered | only treatment with R1.302 (B) was effective | only partially impaired | the virus entry was affected | inhibitory effects were detected only in the presence of 6 | 40 | 50 | able to inhibit HSV-1 infection in a dose-dependent manner |
| CN1C(=O)[C@H](C2CCCCC2)NC(=O)[C@H](CC(=O)O)NC(=O)CNC(=O)[C@H](CCCNC(=N)N)NC(=O)CC[C@H]1C(N)=O [compound 6, [Arg-Gly-Asp-Chg-(NMe)Glu]-CONH2] | < 5.30 | not altered | only treatment with R1.302 (B) was effective | significantly reduced | the virus entry was affected | inhibitory effects were detected only in the presence of 6 |  |  | able to inhibit HSV-1 infection in a dose-dependent manner |

Source: publication PMC8279406 (Journal of Medicinal Chemistry, 2021)
